Patent US20160152995A1, “METHODS AND COMPOSITIONS TO IMPROVE THE SPREAD OF CHEMICAL SIGNALS IN PLANTS” (PIONEER HI-BRED INTERNATIONAL, INC., priority 2013, published 2016)

Experiments:
DS-RED expression = experiment: DS-RED induction in soybean T0 leaf discs floated on ethametsulfuron; type: in vivo; conditions: soybean T0 leaf discs of experimental plants (pPHP46864, amiRNA) vs control pPHP46916; 0.05 ppm or 0.5 ppm, 3-4 days
From the text: (§1) The first, a control construct, pPHP46916 (10,904 bp) (SEQ ID NO: 2111) contains the following cassettes: cassette A comprising a Glycine max s-adenosylmethionine promoter operably linked to the Glycine max acetolactate synthase gene with HrA mutations operably linked to a Glycine max acetolactate synthase terminator (this cassette serves as a selectable marker during plant transformation; position 81-4062); followed by cassette B comprising the T7 promoter operably linked to hygromycin phosphotransferase operably linked to a T7 terminator (which serves as a selectable marker in E. coli, positions 5448-6586); followed by cassette C comprising a cauliflower mosaic virus 35S promoter with three copies of the TET operator embedded operably linked to DS-RED Express that has the potato LS1 intron; operably linked to the cauliflower mosaic virus 35S terminator (position 6862-8455), followed by cassette D comprising the Glycine max elongation factor 1a2 promoter operably linked to the repressor protein ESR (L10-B7) operably linked to the nos terminator (position 8474-10893). The second, experimental construct, pPHP46864 (11,868 bp) (SEQ ID NO:2112) is exactly the same except embedded within the potato LS1 intron at the Mfe1 site is a 964 bp cassette containing the Glycine max microRNA precursor 159 containing a microRNA that targets the repressor protein. […]

DsRED gene expression = experiment: DsRED induction in transgenic tobacco leaf disks and T1 seedlings with Ethametsulfuron; type: in vivo, Nicotiana tabacum; conditions: T1 seeds germinated on 1 ppm Ethametsulfuron, monitored thru four leaf stage
From the text: A summary of the constructs shown in FIG. 4 is provided below in table 29. All vectors contain a right border (RB) proximal 35S::3xtetO-DsRED-UBQ3 inducible reporter cassette, a 35S::1xtetO-EsR(L13-32)-UBQ14 repressor cassette, and a SAMS-HRA-ALS left border (LB) proximal selectable marker. Inserted either upstream (pHD1194-1196) or downstream ([…]) of the repressor cassette are MMV::3xOp-siRNA^rep-Pin2 cassettes composed of an inverted repeat of the full length repressor coding region (no ATG-pHD1194 and 1197) or limited to the 5′ (pHD1195 & 1198) or 3′ (pHD1196 & 1199) halves of the SU repressor coding region linked by an intron spacer region. The MMV::tetO promoter was chosen so as not to cause silencing of the 35S::tetO promoter controlling target transgene expression. In this particular example the spacer region is the potato ST-LS1 gene intron IV2 (Construction of an intron-containing marker gene: splicing of the intron in transgenic plants and its use in monitoring early events in Agrobacterium-mediated plant transformation. Vancanneyt et al. (1990) Mol Gen Genet. 220(2):245-50). […] Nine fully derepressed DsRED positive seedings for each event were then transplanted into soil and their fluorescence phenotype monitored thru the four leaf developmental stage. […]

DS-red signal = DS-red signal in soybean T1 plants from seed imbibed with chlorsulfuron; type: in vivo; conditions: T1 seed imbibed with 1 ppm, two weeks
From the text: as §1

SMILES | pattern of DS-RED expression in inducible leaf discs (DS-RED expression) | DsRED expression signal (DsRED gene expression; pHD1180 control tobacco events (no siRNA cassette)) | DsRED intensity level (DsRED gene expression; tobacco lines containing the MMV::tetO-siRNArep cassette (pHD1194-1199)) | DS-red signal (DS-red signal; control soybean plants (pPHP46916)) | DS-red signal (DS-red signal; experimental soybean plants (pPHP46864, amiRNA))
CCOc1nc(NC)nc(NC(=O)NS(=O)(=O)c2ccccc2C(=O)OC)n1 [Ethametsulfuron, Ethametsulfuron-methyl] | smoother, more even pattern of expression | modest and diminishes | high and remains so with time |  | 
COc1nc(C)nc(NC(=O)NS(=O)(=O)c2ccccc2Cl)n1 [chlorsulfuron] |  |  |  | no DS-red signal found in root, stem or cotyledon | weak DS-red signal
